# Source: US20260285850A1, “SUBSTITUTED OXAZOLIDINONES AND IMIDAZOLINONES AS HERBICIDES” (FMC CORPORATION, priority 2023, published 2026)
# Assays:
# Type in all cases: in vivo
# [1] = tested on: barnyardgrass (Echinochloa crus-galli); assay: Test A preemergence soil spray, visual injury rating 0-100; conditions: 10 days, 0 = no effect, 100 = complete control
# Outline: (§1)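 Compound in a non-phytotoxic, surfactant-containing solvent is applied either as a directed soil spray before seedlings emerge or onto emerged plants 2-10 cm tall; pots hold a loam-sand blend. Plants grow 10 days under greenhouse conditions and are rated by eye against untreated controls (0 no effect, 100 complete control).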
# [2] = tested on: blackgrass (Alopecurus myosuroides); assay: as above; conditions: 10 days, 0 = no effect, 100 = complete control
# Outline: as §1
# corn (Zea mays) [3] = assay: as above; conditions: 10 days, 0 = no effect, 100 = complete control
# Outline: as §1
# [4] = tested on: foxtail, giant (giant foxtail, Setaria faberi); assay: as above; conditions: 10 days, 0 = no effect, 100 = complete control
# Outline: as §1
# kochia (Bassia scoparia) [5] = assay: as above; conditions: 10 days, 0 = no effect, 100 = complete control
# Outline: as §1
# [6] = tested on: oat, wild (wild oat, Avena fatua); assay: as above; conditions: 10 days, 0 = no effect, 100 = complete control
# Outline: as §1
# [7] = tested on: palmer (palmer amaranth, palmer pigweed, Amaranthus palmeri); assay: as above; conditions: 10 days, 0 = no effect, 100 = complete control
# Outline: as §1
# [8] = tested on: ragweed (common ragweed, Ambrosia artemisiifolia); assay: as above; conditions: 10 days, 0 = no effect, 100 = complete control
# Outline: as §1
# [9] = tested on: ryegrass, Italian (italian ryegrass, Lolium multiflorum); assay: as above; conditions: 10 days, 0 = no effect, 100 = complete control
# Outline: as §1
# soybean (Glycine max) [10] = assay: as above; conditions: 10 days, 0 = no effect, 100 = complete control
# Outline: as §1
# [11] = tested on: wheat (Triticum aestivum); assay: as above; conditions: 10 days, 0 = no effect, 100 = complete control
# Outline: as §1
# [12] = tested on: barnyardgrass (Echinochloa crus-galli); assay: Test A postemergence application, visual injury rating 0-100; conditions: Postemergence, 10 days, 0 is no effect, 100 is complete control
# Outline: as §1
# [13] = tested on: blackgrass (Alopecurus myosuroides); assay: as above; conditions: Postemergence, 10 days, 0 is no effect, 100 is complete control
# Outline: as §1
# corn (Zea mays) [14] = assay: as above; conditions: Postemergence, 10 days, 0 is no effect, 100 is complete control
# Outline: as §1
# [15] = tested on: foxtail, giant (giant foxtail, Setaria faberi); assay: as above; conditions: 10 days, 0 is no effect, 100 is complete control
# Outline: as §1
# [16] = tested on: galium (catchweed bedstraw, Galium aparine); assay: as above; conditions: Postemergence, 10 days, 0 is no effect, 100 is complete control
# Outline: as §1
# [17] = tested on: horseweed (Erigeron canadensis); assay: as above; conditions: Postemergence, 10 days, 0 is no effect, 100 is complete control
# Outline: as §1
# kochia (Bassia scoparia) [18] = assay: as above; conditions: Postemergence, 10 days, 0 is no effect, 100 is complete control
# Outline: as §1
# [19] = tested on: oat, wild (wild oat, Avena fatua); assay: as above; conditions: Postemergence, 10 days, 0 is no effect, 100 is complete control
# Outline: as §1
# [20] = tested on: palmer (palmer amaranth, palmer pigweed, Amaranthus palmeri); assay: as above; conditions: Postemergence, 10 days, 0 is no effect, 100 is complete control
# Outline: as §1
# [21] = tested on: ragweed (common ragweed, Ambrosia artemisiifolia); assay: as above; conditions: Postemergence, 10 days, 0 is no effect, 100 is complete control
# Outline: as §1
# [22] = tested on: ryegrass, Italian (italian ryegrass, Lolium multiflorum); assay: as above; conditions: Postemergence, 10 days, 0 is no effect, 100 is complete control
# Outline: as §1
# soybean (Glycine max) [23] = assay: as above; conditions: Postemergence, 10 days, 0 is no effect, 100 is complete control
# Outline: as §1
# [24] = tested on: wheat (Triticum aestivum); assay: as above; conditions: Postemergence, 10 days, 0 is no effect, 100 is complete control
# Outline: as §1
# [25] = tested on: barnyardgrass (Echinochloa crusgalli); assay: Test B flooded paddy test, visual plant response rating 0-100; conditions: 250 g ai/ha, Flood, applied to paddy water, evaluated after 13 days
# Outline: (§2)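 Each species was raised to two leaves before flooding to a 3 cm depth and dosing the water with compound. Injury was assessed by eye after 13 days under greenhouse conditions.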
# [26] = tested on: ducksalad (Heteranthera limosa); assay: as above; conditions: 250 g ai/ha, Flood, applied to paddy water, evaluated after 13 days
# Outline: as §2
# rice (Oryza sativa) = assay: as above; conditions: 250 g ai/ha, Flood, applied to paddy water, evaluated after 13 days
# Outline: as §2
# [27] = tested on: sedge, umbrella (small-flower umbrella sedge, Cyperus difformis); assay: as above; conditions: 250 g ai/ha, Flood, applied to paddy water, evaluated after 13 days
# Outline: as §2
smiles,measurement,setting,value
CC1(C(=O)NC2C=CC(C(=O)NS(C)(=O)=O)C2)CN(c2cc(F)cc(F)c2)C(=O)O1 (stereo not shown) [Compound 30],Barnyardgrass plant response rating (0 to 100 scale),[1]; 125 g ai/ha,60
same,Barnyardgrass plant response rating (0 to 100 scale),[1]; 500 g ai/ha,100
same,Blackgrass plant response rating (0 to 100 scale),[2]; 125 g ai/ha,80
same,Blackgrass plant response rating (0 to 100 scale),[2]; 500 g ai/ha,90
same,Corn plant response rating (0 to 100 scale),corn (Zea mays) [3]; 125 g ai/ha,70
same,Corn plant response rating (0 to 100 scale),corn (Zea mays) [3]; 500 g ai/ha,80
same,"Foxtail, Giant plant response rating (0 to 100 scale)",[4]; 125 g ai/ha,30
same,"Foxtail, Giant plant response rating (0 to 100 scale)",[4]; 500 g ai/ha,100
same,Kochia plant response rating (0 to 100 scale),kochia (Bassia scoparia) [5]; 125 g ai/ha,90
same,Kochia plant response rating (0 to 100 scale),kochia (Bassia scoparia) [5]; 500 g ai/ha,90
same,"Oat, Wild plant response rating (0 to 100 scale)",[6]; 125 g ai/ha,60
same,"Oat, Wild plant response rating (0 to 100 scale)",[6]; 500 g ai/ha,90
same,"Amaranth, Palmer plant response rating (0 to 100 scale)",[7]; 125 g ai/ha,80
same,"Amaranth, Palmer plant response rating (0 to 100 scale)",[7]; 500 g ai/ha,100
same,Ragweed plant response rating (0 to 100 scale),[8]; 125 g ai/ha,40
same,Ragweed plant response rating (0 to 100 scale),[8]; 500 g ai/ha,60
same,"Ryegrass, Italian plant response rating (0 to 100 scale)",[9]; 125 g ai/ha,70
same,"Ryegrass, Italian plant response rating (0 to 100 scale)",[9]; 500 g ai/ha,90
same,Soybean plant response rating (0 to 100 scale),soybean (Glycine max) [10]; 125 g ai/ha,0
same,Soybean plant response rating (0 to 100 scale),soybean (Glycine max) [10]; 500 g ai/ha,80
same,Wheat plant response rating (0 to 100 scale),[11]; 125 g ai/ha,90
same,Wheat plant response rating (0 to 100 scale),[11]; 500 g ai/ha,100
same,Barnyardgrass plant response rating (0 to 100 scale),[12]; 125 g ai/ha,100
same,Barnyardgrass plant response rating (0 to 100 scale),[12]; 500 g ai/ha,100
same,Blackgrass plant response rating (0 to 100 scale),[13]; 125 g ai/ha,70
same,Blackgrass plant response rating (0 to 100 scale),[13]; 500 g ai/ha,100
same,Corn plant response rating (0 to 100 scale),corn (Zea mays) [14]; 125 g ai/ha,60
same,Corn plant response rating (0 to 100 scale),corn (Zea mays) [14]; 500 g ai/ha,90
same,"Foxtail, Giant plant response rating (0 to 100 scale)",[15]; 125 g ai/ha,90
same,"Foxtail, Giant plant response rating (0 to 100 scale)",[15]; 500 g ai/ha,90
same,Galium plant response rating (0 to 100 scale),[16]; 125 g ai/ha,80
same,Galium plant response rating (0 to 100 scale),[16]; 500 g ai/ha,80
same,Horseweed plant response rating (0 to 100 scale),[17]; 125 g ai/ha,30
same,Horseweed plant response rating (0 to 100 scale),[17]; 500 g ai/ha,80
same,Kochia plant response rating (0 to 100 scale),kochia (Bassia scoparia) [18]; 125 g ai/ha,70
same,Kochia plant response rating (0 to 100 scale),kochia (Bassia scoparia) [18]; 500 g ai/ha,80
same,"Oat, Wild plant response rating (0 to 100 scale)",[19]; 125 g ai/ha,100
same,"Oat, Wild plant response rating (0 to 100 scale)",[19]; 500 g ai/ha,100
same,"Amaranth, Palmer / Pigweed, Palmer plant response rating (0 to 100 scale)",[20]; 125 g ai/ha,90
same,"Amaranth, Palmer / Pigweed, Palmer plant response rating (0 to 100 scale)",[20]; 500 g ai/ha,90
same,Ragweed plant response rating (0 to 100 scale),[21]; 125 g ai/ha,20
same,Ragweed plant response rating (0 to 100 scale),[21]; 500 g ai/ha,80
same,"Ryegrass, Italian plant response rating (0 to 100 scale)",[22]; 125 g ai/ha,80
same,"Ryegrass, Italian plant response rating (0 to 100 scale)",[22]; 500 g ai/ha,100
same,Soybean plant response rating (0 to 100 scale),soybean (Glycine max) [23]; 125 g ai/ha,60
same,Soybean plant response rating (0 to 100 scale),soybean (Glycine max) [23]; 500 g ai/ha,70
same,Wheat plant response rating (0 to 100 scale),[24]; 125 g ai/ha,80
same,Wheat plant response rating (0 to 100 scale),[24]; 500 g ai/ha,80
same,"Plant response rating, Barnyardgrass (0 to 100 scale, 0 is no effect and 100 is complete control)",[25],15
same,"Plant response rating, Ducksalad (0 to 100 scale, 0 is no effect and 100 is complete control)",[26],65
same,"Plant response rating, Rice (0 to 100 scale, 0 is no effect and 100 is complete control)",rice (Oryza sativa),0
same,"Plant response rating, Sedge, Umbrella (0 to 100 scale, 0 is no effect and 100 is complete control)",[27],95
